Assay results from ChEMBL document CHEMBL1201862, “PubChem BioAssay data set” (2004).
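Results reflect a 48-hour exposure of cells in 96-well plates to compound at five concentrations. At the GI50, growth is halved.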 The source made the active and inactive calls. Cut-off read from the data, not from the text of the source: active = GI50 up to about 1.1 µM and inactive = higher. Where a SMILES comes first, the peptide text is derived from it.

What was measured:
Experiment in all cases: NCI tumour cell line growth inhibition, 48 h
CAKI-1 = tested on: CAKI-1
HOP-62 = tested on: HOP-62
HOP-92 = tested on: HOP-92
IGROV-1 = tested on: IGROV-1
LOX IMVI = tested on: LOX IMVI
MCF7 = tested on: MCF7
MDA-MB-231 = tested on: MDA-MB-231
Malme-3M = tested on: Malme-3M
SF-539 = tested on: SF-539
SK-OV-3 = tested on: SK-OV-3
SNB-75 = tested on: SNB-75
SW-620 = tested on: SW-620
U-251 = tested on: U-251
UO-31 = tested on: UO-31
CCRF-CEM = tested on: CCRF-CEM
DU-145 = tested on: DU-145
HL-60 = tested on: HL-60
HT-29 = tested on: HT-29
SR = tested on: SR
Hs-578T = tested on: Hs-578T

Measured: GI50

CC(=O)Nc1ccc2cc(C#N)c(=O)[nH]c2n1
inactive: CAKI-1 > 100 µM | HOP-62 > 100 µM | HOP-92 > 100 µM | IGROV-1 > 100 µM | LOX IMVI > 100 µM | MCF7 > 100 µM | MDA-MB-231 > 100 µM | Malme-3M > 100 µM | SF-539 > 100 µM | SK-OV-3 > 100 µM | SNB-75 > 100 µM | SW-620 > 100 µM | U-251 81.3 µM | UO-31 > 100 µM

CNC(=O)CNC(=O)C(NC(=O)CNC(=O)C1CCCN1C(=O)C(C)NC(=O)C(NC(C)=O)C(C)C)C(C)C (stereo not given) (Ac-VAPGVG-NHMe; configuration not given here)
inactive: CAKI-1 > 100 µM | CCRF-CEM > 100 µM | DU-145 > 100 µM | HL-60 > 100 µM | HOP-62 > 100 µM | HOP-92 > 100 µM | HT-29 > 100 µM | IGROV-1 > 100 µM | LOX IMVI > 100 µM | MCF7 > 100 µM | MDA-MB-231 > 100 µM | Malme-3M > 100 µM | SF-539 > 100 µM | SK-OV-3 > 100 µM | SR > 100 µM | SW-620 > 100 µM | U-251 > 100 µM | UO-31 > 100 µM

NC1CC(=O)c2cc(Br)sc21 (stereo not given)
inactive: CAKI-1 > 100 µM | CCRF-CEM > 100 µM | DU-145 > 100 µM | HL-60 > 100 µM | HOP-62 > 100 µM | HT-29 > 100 µM | IGROV-1 > 100 µM | MCF7 > 100 µM | MDA-MB-231 > 100 µM | Malme-3M > 100 µM | SF-539 > 100 µM | SK-OV-3 > 100 µM | SNB-75 > 100 µM | SR > 100 µM | SW-620 > 100 µM | U-251 > 100 µM | UO-31 > 100 µM

CCCCCCCCCCCCCP(=O)(OC)OC
inactive: CAKI-1 18 µM | CCRF-CEM 20.8 µM | HL-60 15.6 µM | HOP-62 14.9 µM | HOP-92 16.9 µM | HT-29 18.4 µM | IGROV-1 19.3 µM | LOX IMVI 19.3 µM | Malme-3M 22.5 µM | SF-539 17 µM | SK-OV-3 19 µM | SNB-75 21.2 µM | SR 19 µM | SW-620 17.7 µM | U-251 18.5 µM | UO-31 16.3 µM

Nc1ccc(C(=O)N/C(=C\c2cccc([N+](=O)[O-])c2)c2nc3ccccc3[nH]2)cc1
inactive: CAKI-1 47 µM | CCRF-CEM > 100 µM | HL-60 > 81.7 µM | HOP-62 21.8 µM | HOP-92 23.6 µM | HT-29 > 100 µM | IGROV-1 28.5 µM | LOX IMVI > 100 µM | Malme-3M 57.3 µM | SF-539 22.8 µM | SK-OV-3 29.2 µM | SNB-75 23.3 µM | SR > 100 µM | SW-620 > 100 µM | U-251 41.4 µM | UO-31 20.6 µM

NC1(c2cc3ccccc3s2)CCCCCC1
inactive: CAKI-1 13.8 µM | CCRF-CEM 16 µM | DU-145 17.2 µM | HL-60 14.8 µM | HOP-62 14.6 µM | HOP-92 14 µM | HT-29 14.2 µM | IGROV-1 14.7 µM | LOX IMVI 17.9 µM | MCF7 16.1 µM | MDA-MB-231 15.7 µM | SF-539 18 µM | SK-OV-3 17.1 µM | SNB-75 11.1 µM | SR 16.2 µM | SW-620 16.3 µM | U-251 15.7 µM | UO-31 14.4 µM

O=C(O)C(C(=O)C(=O)C(C(=O)O)c1ccc(Cl)cc1)c1ccc(Cl)cc1 (stereo not given)
inactive: CAKI-1 4.13 µM | CCRF-CEM 2.34 µM | HL-60 2.18 µM | HOP-62 5.22 µM | HOP-92 3.11 µM | HT-29 3.72 µM | IGROV-1 3.23 µM | LOX IMVI 2.56 µM | Malme-3M 2.5 µM | SF-539 2.15 µM | SK-OV-3 5.89 µM | SNB-75 3.32 µM | SR 1.91 µM | SW-620 3.98 µM | U-251 3.22 µM | UO-31 4.72 µM

CN(C(=O)C12C3C4C1C1C4(C(=O)C45C6C7C4C4C5C6C74C)C3C12C)C(C)(C)C (stereo not given)
inactive: CAKI-1 > 100 µM | CCRF-CEM 32.1 µM | HL-60 14.8 µM | HOP-62 > 100 µM | HOP-92 28.6 µM | HT-29 17.5 µM | IGROV-1 > 100 µM | LOX IMVI 48.1 µM | Malme-3M > 100 µM | SF-539 > 100 µM | SK-OV-3 90.4 µM | SNB-75 > 100 µM | SR 29.2 µM | SW-620 > 100 µM | U-251 79.3 µM | UO-31 38.5 µM

O=C1CC(C(OCc2ccccc2)C(OCc2ccccc2)C(OCc2ccccc2)C(COCc2ccccc2)OCc2ccccc2)CC(=O)N1 (stereo not given)
inactive: CCRF-CEM > 100 µM | DU-145 > 100 µM | HL-60 > 100 µM | HOP-62 > 100 µM | HOP-92 18 µM | HT-29 > 100 µM | Hs-578T > 100 µM | IGROV-1 > 100 µM | LOX IMVI > 100 µM | Malme-3M > 100 µM | SNB-75 > 100 µM | SR > 100 µM | SW-620 > 100 µM | U-251 79.8 µM | UO-31 60.1 µM

C=C1C(=O)O[C@@H]2C(=O)[C@@H](C)CCC/C(C)=C/CC[C@@]3(C)O[C@@H]3C[C@@H]12
active: SNB-75 0.438 µM
inactive: CAKI-1 19.9 µM | CCRF-CEM 11.8 µM | DU-145 75.2 µM | HL-60 16.5 µM | HOP-62 > 100 µM | HOP-92 13.2 µM | HT-29 14.3 µM | IGROV-1 15.7 µM | LOX IMVI 18.9 µM | MCF7 36.3 µM | MDA-MB-231 53.8 µM | Malme-3M 23 µM | SF-539 25.2 µM | SK-OV-3 > 100 µM | SW-620 20.8 µM | U-251 98.9 µM | UO-31 92.7 µM

CO/N=C(\C(=O)[N-]n1cn[n+](CC(=O)OC(C)(C)C)c1)c1csc(NC(c2ccccc2)(c2ccccc2)c2ccccc2)n1
inactive: CAKI-1 > 10 µM | CCRF-CEM > 10 µM | DU-145 > 10 µM | HL-60 > 10 µM | HOP-62 > 10 µM | HOP-92 > 10 µM | HT-29 > 10 µM | Hs-578T > 10 µM | IGROV-1 > 10 µM | LOX IMVI > 10 µM | MCF7 > 10 µM | Malme-3M > 10 µM | SF-539 > 10 µM | SK-OV-3 > 10 µM | SNB-75 > 10 µM | SR > 10 µM | SW-620 > 10 µM | U-251 > 10 µM | UO-31 > 10 µM

CC(C)=CC[C@H]1C[C@]2(CC=C(C)C)C(=O)[C@@](CC=C(C)C)(C(=O)C(C(=O)c3ccccc3)=C2O)C1(C)C [6-EPI-CLUSIANONE]
inactive: CAKI-1 4.44 µM | HOP-62 6.87 µM | HOP-92 4.31 µM | HT-29 4.67 µM | Hs-578T 14.3 µM | IGROV-1 3.82 µM | LOX IMVI 3.46 µM | MCF7 4.59 µM | MDA-MB-231 6.01 µM | Malme-3M 6.49 µM | SF-539 11.6 µM | SK-OV-3 5.32 µM | SNB-75 7.28 µM | SR 8.65 µM | SW-620 6.28 µM | U-251 4.31 µM | UO-31 3.44 µM

Nc1cc(N2CCOCC2)nc(=O)n1-c1ccc(Cl)cc1
inactive: CAKI-1 > 100 µM | CCRF-CEM > 100 µM | DU-145 > 100 µM | HL-60 8.38 µM | HOP-62 > 100 µM | HOP-92 > 100 µM | HT-29 > 100 µM | IGROV-1 > 100 µM | LOX IMVI > 100 µM | MCF7 > 100 µM | SF-539 > 100 µM | SK-OV-3 > 100 µM | SNB-75 > 100 µM | SR > 100 µM | SW-620 > 100 µM | U-251 > 100 µM | UO-31 > 100 µM

N#C/C(N)=N/c1ccccc1
inactive: CAKI-1 > 100 µM | CCRF-CEM > 100 µM | HL-60 > 100 µM | HOP-62 > 100 µM | HOP-92 > 100 µM | HT-29 > 100 µM | IGROV-1 > 100 µM | LOX IMVI 68.7 µM | Malme-3M > 100 µM | SF-539 > 100 µM | SK-OV-3 > 100 µM | SNB-75 > 100 µM | SR > 100 µM | SW-620 > 100 µM | U-251 > 100 µM | UO-31 > 100 µM

COC(=O)C1C2C=CC(C2)N1S(=O)(=O)c1ccccc1 (stereo not given)
inactive: CAKI-1 > 100 µM | DU-145 > 100 µM | HOP-62 > 100 µM | HOP-92 33 µM | HT-29 > 100 µM | MCF7 > 100 µM | MDA-MB-231 > 100 µM | Malme-3M > 100 µM | SF-539 > 100 µM | SK-OV-3 > 100 µM | SW-620 > 100 µM | U-251 > 100 µM | UO-31 > 100 µM

O=C1NC(Nc2cccc(Cl)c2)=N/C1=C\c1ccc(Cl)c(Cl)c1
inactive: CAKI-1 4.6 µM | CCRF-CEM 3.45 µM | DU-145 7.52 µM | HL-60 1.95 µM | HOP-62 8.79 µM | HOP-92 3.48 µM | HT-29 6.73 µM | Hs-578T 3.04 µM | IGROV-1 5.66 µM | LOX IMVI 2.14 µM | MCF7 3.01 µM | Malme-3M 14.1 µM | SF-539 9.31 µM | SK-OV-3 12.4 µM | SNB-75 13.3 µM | SR 2.82 µM | SW-620 3.68 µM | U-251 4.02 µM | UO-31 7.29 µM
